We go through 39 compounds from ChEMBL document CHEMBL6115041, “Discovery of AIC263282, a Hepatitis B Virus Capsid Assembly Modulator Ready for Candidate Profiling” (J Med Chem, 2025).

≈ marks a conversion by molar mass, not a printed value.

Tested on in the first data set: not listed separately
In words: Kinetic solubility of compound. The data set is classed as physicochemical.
Conditions: not given
Consider `Cc1noc(C2(NC(=O)C(=O)N3CCN(C(=O)c4cc5c(Cl)cccc5[nH]4)CC3)CC(F)(F)C2)n1`, for which the Kinetic_solubility result is “Not_determined(Insoluble)”. The same measure, in the same setting: under `Cc1noc(C2(NC(=O)C(=O)N3CCN(C(=O)c4cc5c(Cl)c(F)ccc5[nH]4)CC3)CC(F)(F)C2)n1` stands “Not_determined(Insoluble)”; under `CN(C)C(=O)C1(NC(=O)C(=O)N2CCN(C(=O)c3cc4cc(F)c(F)cc4[nH]3)CC2)CC(F)(F)C1`, “Not_determined(Insoluble)”.

Take `CCc1cc(F)cc2[nH]c(C(=O)N3CCN(C(=O)C(=O)NC4(c5ccc(C)nc5)COC4)C[C@H]3C)cc12`: the Kinetic_solubility entry is given as “Not_determined(Insoluble)”. The same measure, in the same setting: in the case of `CC1(NC(=O)C(=O)N2CCN(C(=O)c3cc4cc(F)c(F)cc4[nH]3)CC2)CS(=O)(=O)C1` it was “Not_determined(Insoluble)”; in that of `CCc1cc(F)cc2[nH]c(C(=O)N3CCN(C(=O)C(=O)NC4(C(F)(F)F)CCOCC4)CC3)cc12`, “Not_determined(Insoluble)”. `Cc1noc(C2(NC(=O)C(=O)N3CCN(C(=O)c4cc5c(F)c(F)ccc5[nH]4)CC3)CC(F)(F)C2)n1`: the Kinetic_solubility result is on record as “Not_determined(Insoluble)”. On the same count and under the same terms, under `Cc1noc(C2(NC(=O)C(=O)N3CCN(C(=O)c4cc5c(F)c(F)c(F)cc5[nH]4)CC3)CC(F)(F)C2)n1` stands “Not_determined(Insoluble)”; under `Cc1cc(F)cc2[nH]c(C(=O)N3CCN(C(=O)C(=O)NC4(C(F)(F)F)CCOCC4)CC3)cc12`, “Not_determined(Insoluble)”.

Turning to `Cc1noc(C2(NC(=O)C(=O)N3CCN(C(=O)c4cc5cc(F)c(Cl)cc5[nH]4)CC3)CC(F)(F)C2)n1`, the Kinetic_solubility result is recorded as “Not_determined(Insoluble)”. Consider `Cc1noc(C2(NC(=O)C(=O)N3CCN(C(=O)c4cc5ccccc5[nH]4)CC3)CC(F)(F)C2)n1`, for which the Kinetic_solubility result is “Not_determined(Insoluble)”. Same read-out and setting: under `O=C(NC1(C(F)(F)F)CC1)C(=O)N1CCN(C(=O)c2cc3cc(F)c(F)cc3[nH]2)CC1` stands “Not_determined(Insoluble)”. On the same count and under the same terms, in the case of `O=C(NC1(C(F)(F)F)CCOCC1)C(=O)N1CCN(C(=O)c2cc3c(Cl)cc(F)cc3[nH]2)CC1` it was “Not_determined(Insoluble)”; in that of `Cc1noc(C2(NC(=O)C(=O)N3CCN(C(=O)c4cc5ccc(Cl)cc5[nH]4)CC3)CC(F)(F)C2)n1`, “Not_determined(Insoluble)”.

The same data set, now with this note: read-out: Kinetic_solubility.
As to `O=C(NC1(c2ccccn2)CCC1)C(=O)N1CCN(C(=O)c2cc3cc(F)c(F)cc3[nH]2)CC1`, the solubility kinetic was found to be 79 µM (≈ 36.9 µg/mL).

For the next data set, the system named is Hepatitis B virus. In words: Antiviral activity against HBV infected in human HePAD38 cells measured after 6 days by qPCR analysis. The data set is classed as functional, organism-based. The conditions noted are these: HePAD38, 144 h. On the technique in general: Quantitative PCR measures a nucleic acid by following its amplification.
Compound `Cc1noc(C2(NC(=O)C(=O)N3CCN(C(=O)c4cc5c(Cl)cccc5[nH]4)CC3)CC(F)(F)C2)n1` came in with an EC50 of 51 nM.

Take `CCc1cc(F)cc2[nH]c(C(=O)N3CCN(C(=O)C(=O)NC4(c5cnc(OC)cn5)COC4)C[C@H]3C)cc12`: it took 2.5 nM to reach a half-maximal effect (EC50). Against the preceding compound, the EC50 is about 20-fold lower.

The compound `CCc1cc(F)cc2[nH]c(C(=O)N3CCN(C(=O)C(=O)NC4(C)COC4)C[C@H]3C)cc12` returned an EC50 of 3.8 nM. Still for that read-out and setting: in the case of `CC1(NC(=O)C(=O)N2CCN(C(=O)c3cc4cc(F)c(F)cc4[nH]3)CC2)CCC1` it was 34 nM; in that of `C[C@H]1CN(C(=O)C(=O)NC2(C)CCOCC2)CCN1C(=O)c1cc2cc(F)c(F)cc2[nH]1`, 60 nM. The same measure, in the same setting: under `C[C@@H](NC(=O)C(=O)N1CCN(C(=O)c2cc3cc(F)c(F)cc3[nH]2)CC1)C(F)(F)F` stands 127 nM; under `C[C@@H](NC(=O)C(=O)N1CCN(C(=O)/C=C/c2c(N)cc(F)cc2F)CC1)C(F)(F)F`, 53 nM.

In turn, `CC1(NC(=O)C(=O)N2CCN(C(=O)c3cc4cc(F)c(F)cc4[nH]3)CC2)COC1` came in with an EC50 of 52 nM.

`Cc1noc(C2(NC(=O)C(=O)N3CCN(C(=O)c4cc5c(Cl)c(F)ccc5[nH]4)CC3)CC(F)(F)C2)n1` registered an EC50 of 18 nM. Turning to `CCc1cc(F)cc2[nH]c(C(=O)N3CCN(C(=O)C(=O)NC4(C(F)(F)F)COC4)CC3)cc12`, the half-maximal effective concentration (EC50) came out at 6.2 nM. In turn, `CCc1cc(F)cc2[nH]c(C(=O)N3CCN(C(=O)C(=O)NC4(c5nc(C)no5)COC4)C[C@H]3C)cc12` gave an EC50 of 2.9 nM. Against the preceding compound, the EC50 is about 2.1-fold lower.

On to `CN(C)C(=O)C1(NC(=O)C(=O)N2CCN(C(=O)c3cc4cc(F)c(F)cc4[nH]3)CC2)CC(F)(F)C1`, for which the half-maximal effective concentration (EC50) came out at 160 nM.

On to `CCc1cc(F)cc2[nH]c(C(=O)N3CCN(C(=O)C(=O)NC4(c5ccncc5F)COC4)C[C@H]3C)cc12`, for which the midpoint of the response, the EC50, lay at 2.4 nM. This EC50 lies about 67-fold lower than the previous one.

`C[C@@H]1CN(C(=O)C(=O)NC2(C)CCOCC2)CCN1C(=O)c1cc2cc(F)c(F)cc2[nH]1` showed an EC50 of 7.5 nM. This EC50 lies about 3.1-fold higher than the previous one.

As for `CCc1cc(F)cc2[nH]c(C(=O)N3CCN(C(=O)C(=O)NC4(c5ccc(C)nc5)COC4)C[C@H]3C)cc12`, the midpoint of the response, the EC50, lay at 1.3 nM. On the same count and under the same terms, under `CC1(NC(=O)C(=O)N2CCN(C(=O)c3cc4cc(F)c(F)cc4[nH]3)CC2)CC(F)(F)C1` stands 9.8 nM.

For the compound `O=C(NC1(c2ccncc2)CCC1)C(=O)N1CCN(C(=O)c2cc3cc(F)c(F)cc3[nH]2)CC1`, a half-maximal response (EC50) required 0.79 nM.

`CCc1cc(F)cc2[nH]c(C(=O)N3CCN(C(=O)C(=O)NC4(C)COC4)CC3)cc12` yielded an EC50 of 19 nM. On the same count and under the same terms, under `Cc1noc(C2(NC(=O)C(=O)N3CCN(C(=O)c4cc5cc(F)c(F)cc5[nH]4)CC3)CC(F)(F)C2)n1` stands 13 nM; under `CC1(NC(=O)C(=O)N2CCN(C(=O)c3cc4cc(F)c(F)cc4[nH]3)CC2)CS(=O)(=O)C1`, 240 nM; under `O=C(NC1(C(F)(F)F)CCOCC1)C(=O)N1CCN(C(=O)c2cc3cc(F)c(F)cc3[nH]2)CC1`, 18 nM. Same read-out and setting: under `O=C(NC1(c2ccccn2)CCC1)C(=O)N1CCN(C(=O)c2cc3cc(F)c(F)cc3[nH]2)CC1` stands 24 nM. Still for that read-out and setting: under `CCc1cc(F)cc2[nH]c(C(=O)N3CCN(C(=O)C(=O)NC4(c5cnn(C)c5)COC4)C[C@H]3C)cc12` stands 2.4 nM; under `CCc1cc(F)cc2[nH]c(C(=O)N3CCN(C(=O)C(=O)NC4(C(F)(F)F)CCOCC4)CC3)cc12`, 2.4 nM. `Cc1noc(C2(NC(=O)C(=O)N3CCN(C(=O)c4cc5c(F)c(F)ccc5[nH]4)CC3)CC(F)(F)C2)n1` yielded an EC50 of 23 nM. The same measure, in the same setting: in the case of `Cc1noc(C2(NC(=O)C(=O)N3CCN(C(=O)c4cc5c(F)c(F)c(F)cc5[nH]4)CC3)CC(F)(F)C2)n1` it was 28 nM. Same read-out and setting: in the case of `Cc1cc(F)cc2[nH]c(C(=O)N3CCN(C(=O)C(=O)NC4(C(F)(F)F)CCOCC4)CC3)cc12` it was 12 nM; in that of `CCc1cc(F)cc2[nH]c(C(=O)N3CCN(C(=O)C(=O)NC4(C(F)(F)F)CCOCC4)C[C@H]3C)cc12`, 2.2 nM; in that of `CCc1cc(F)cc2[nH]c(C(=O)N3CCN(C(=O)C(=O)NC4(c5ncccn5)COC4)C[C@H]3C)cc12`, 7 nM. `Cc1noc(C2(NC(=O)C(=O)N3CCN(C(=O)c4cc5cc(F)c(Cl)cc5[nH]4)CC3)CC(F)(F)C2)n1` yielded an EC50 of 28 nM. Same read-out and setting: under `CCc1cc(F)cc2[nH]c(C(=O)N3CCN(C(=O)C(=O)NC4(c5nc(C)no5)CC(F)(F)C4)CC3)cc12` stands 10 nM; under `CC1(NC(=O)C(=O)N2CCN(C(=O)c3cc4cc(F)c(F)cc4[nH]3)CC2)CCOCC1`, 30 nM. Regarding `O=C(NC1(c2cccnc2)CCC1)C(=O)N1CCN(C(=O)c2cc3cc(F)c(F)cc3[nH]2)CC1`, it took 7.5 nM to reach a half-maximal effect (EC50). As for `O=C(NC1(c2c[nH]nn2)CC(F)(F)C1)C(=O)N1CCN(C(=O)c2cc3cc(F)c(F)cc3[nH]2)CC1`, the EC50 stood at 54 nM.

As to `Cc1noc(C2(NC(=O)C(=O)N3CCN(C(=O)c4cc5ccccc5[nH]4)CC3)CC(F)(F)C2)n1`, the 50% effective concentration (EC50) worked out at 140 nM. Still for that read-out and setting: in the case of `O=C(NC1(C(F)(F)F)CC1)C(=O)N1CCN(C(=O)c2cc3cc(F)c(F)cc3[nH]2)CC1` it was 26 nM; in that of `O=C(NC1(C(F)(F)F)CCOCC1)C(=O)N1CCN(C(=O)c2cc3c(Cl)cc(F)cc3[nH]2)CC1`, 14 nM; in that of `Cc1noc(C2(NC(=O)C(=O)N3CCN(C(=O)c4cc5ccc(Cl)cc5[nH]4)CC3)CC(F)(F)C2)n1`, 92 nM.

The subject of another data set is hERG. Put plainly: Selectivity ratio of IC50 for human ERG to EC50 for Antiviral activity against HBV infected in human HePAD38 cells. The data set is classed as toxicity, cell-based. The conditions noted are these: HePAD38 cells infected with HBV (for the EC50), read-out: Ratio IC50/EC50.
As to `C[C@@H]1CN(C(=O)C(=O)NC2(C(F)(F)F)COC2)CCN1C(=O)c1cc2cc(F)c(F)cc2[nH]1`, the selectivity ratio came to 653.

Tested on in the next data set: not listed separately
In words: Metabolic stability in mouse liver microsome assessed as liver blood flow by HPLC analysis relative to control. The data set is classed as ADME. The conditions noted are these: microsomes. (In general: Microsomes from liver hold many membrane-bound enzymes, among them those of drug oxidation.)
In the case of `Cc1noc(C2(NC(=O)C(=O)N3CCN(C(=O)c4cc5c(Cl)c(F)ccc5[nH]4)CC3)CC(F)(F)C2)n1`, the LBF is 44%.

As for `CCc1cc(F)cc2[nH]c(C(=O)N3CCN(C(=O)C(=O)NC4(c5ccc(C)nc5)COC4)C[C@H]3C)cc12`, the LBF is 93%.

Regarding `O=C(NC1(c2ccccn2)CCC1)C(=O)N1CCN(C(=O)c2cc3cc(F)c(F)cc3[nH]2)CC1`, the LBF was determined as 43%. In the case of `CCc1cc(F)cc2[nH]c(C(=O)N3CCN(C(=O)C(=O)NC4(C(F)(F)F)CCOCC4)CC3)cc12`, the LBF came out at 56%.

The target in a further data set is Voltage-gated inwardly rectifying potassium channel KCNH2 (Homo sapiens, UniProt Q12809). Put plainly: Inhibition of human ERG by patch clamp assay. The data set is classed as toxicity.
Voltage-gated inwardly rectifying potassium channel KCNH2, sequence (Q12809 whole entry): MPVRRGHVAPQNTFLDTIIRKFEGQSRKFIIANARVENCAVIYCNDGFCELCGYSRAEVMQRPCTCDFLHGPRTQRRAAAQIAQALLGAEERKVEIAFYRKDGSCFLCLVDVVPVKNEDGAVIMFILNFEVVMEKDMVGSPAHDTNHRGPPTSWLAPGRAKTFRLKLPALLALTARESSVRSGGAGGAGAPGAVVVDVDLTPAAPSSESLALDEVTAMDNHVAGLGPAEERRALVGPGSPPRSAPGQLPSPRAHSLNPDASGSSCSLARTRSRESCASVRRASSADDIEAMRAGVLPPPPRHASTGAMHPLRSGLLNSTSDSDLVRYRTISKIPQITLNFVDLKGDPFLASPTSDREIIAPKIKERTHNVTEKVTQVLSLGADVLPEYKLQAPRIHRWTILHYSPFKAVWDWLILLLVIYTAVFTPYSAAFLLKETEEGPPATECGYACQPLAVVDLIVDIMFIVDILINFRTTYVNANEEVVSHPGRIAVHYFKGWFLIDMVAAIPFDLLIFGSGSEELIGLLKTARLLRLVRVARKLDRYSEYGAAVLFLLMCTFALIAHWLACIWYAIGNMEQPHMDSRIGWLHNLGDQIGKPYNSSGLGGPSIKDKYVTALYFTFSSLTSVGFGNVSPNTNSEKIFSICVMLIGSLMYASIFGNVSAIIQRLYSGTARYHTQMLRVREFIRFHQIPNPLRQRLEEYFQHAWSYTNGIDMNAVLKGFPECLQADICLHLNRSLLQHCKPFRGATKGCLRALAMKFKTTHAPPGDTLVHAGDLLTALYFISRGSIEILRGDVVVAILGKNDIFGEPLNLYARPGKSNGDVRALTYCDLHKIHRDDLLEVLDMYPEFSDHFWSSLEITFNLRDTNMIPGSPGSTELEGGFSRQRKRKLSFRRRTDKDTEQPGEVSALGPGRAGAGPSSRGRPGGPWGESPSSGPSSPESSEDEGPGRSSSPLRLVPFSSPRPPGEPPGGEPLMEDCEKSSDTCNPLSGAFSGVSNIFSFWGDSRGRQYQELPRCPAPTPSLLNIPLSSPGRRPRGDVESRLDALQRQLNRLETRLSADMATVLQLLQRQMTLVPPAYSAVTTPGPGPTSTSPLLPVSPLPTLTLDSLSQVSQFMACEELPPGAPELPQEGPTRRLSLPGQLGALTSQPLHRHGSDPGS
Conditions: not given
(In general: The patch-clamp technique gives a direct electrical read-out from membranes.)
Turning to `C[C@@H]1CN(C(=O)C(=O)NC2(C(F)(F)F)COC2)CCN1C(=O)c1cc2cc(F)c(F)cc2[nH]1`, 9800 nM corresponded to half-maximal inhibition (IC50).

Tested on in a further data set: not listed separately
In words: Cytotoxicity against human HePAD38 cells measured after 6 days by prestoblue reagent based analysis. The conditions noted are these: time 6 day. The data set is classed as toxicity, cell-based.
Compound `CN(C)C(=O)C1(NC(=O)C(=O)N2CCN(C(=O)c3cc4cc(F)c(F)cc4[nH]3)CC2)CC(F)(F)C1` returned a CC50 at 144 h of over 32000 nM. Compound `CC1(NC(=O)C(=O)N2CCN(C(=O)c3cc4cc(F)c(F)cc4[nH]3)CC2)CS(=O)(=O)C1` returned a CC50 at 144 h of over 10000 nM. On to `O=C(NC1(c2ccccn2)CCC1)C(=O)N1CCN(C(=O)c2cc3cc(F)c(F)cc3[nH]2)CC1`, for which the CC50 at 144 h was over 10000 nM. Compound `O=C(NC1(C(F)(F)F)CC1)C(=O)N1CCN(C(=O)c2cc3cc(F)c(F)cc3[nH]2)CC1` came in with a CC50 at 144 h of over 10000 nM.

In general, EC50 refers to the concentration giving half of the maximal effect. By IC50 is commonly meant the point on the concentration scale where inhibition reaches its midpoint. Low readings indicate greater potency in that assay, high ones weaker potency in that assay. As a reminder, the CC50 is the concentration giving 50% cytotoxicity. A higher CC50 goes with lower toxicity to the cells.
